According to patent EP2929785A1, “A PLA inhibitor for inhibition of fat absorption” (PAT GmbH, priority 2014, dated 2015):

What was measured:
CaCo2 cells = experiment: Fatty acid influx in CaCo2 cells; assay type: cell-based
wild-type hepatocytes = experiment: Fatty acid influx in primary hepatocytes from wild-type mice; assay type: cell-based; conditions: UDCA-LPE pretreatment (Fig. 4B)
iPLA2ß-/- hepatocytes = experiment: Fatty acid influx in primary hepatocytes from iPLA2ß-/- mice; assay type: cell-based; conditions: UDCA-LPE pretreatment (Fig. 4B)
HepG2 cells = experiment: Cellular steatohepatitis model in HepG2 cells; assay type: cell-based, human; conditions: UDCA-LPE 100 µM, 1 h, before or after 3 h 400 µM oleate:albumin (4:1)
Method: To induce steatosis, HepG2 cells were incubated with 400 µM oleate:albumin (4:1) for 3 h. The effect of UDCA-LPE (100 µM; 1 h) relative to PBS (control) was examined by pretreating cells before or after the 3- h fatty acid feeding period (with continuous fatty acid feeding thereafter). Fatty acid loading was examined by staining cells with Oil Red (Sigma) and by immunodetection of triglycerides (ab65336; Abcam, Cambridge, UK). In addition, the release of lactate dehydrogenase (LDH) (11644793001; Roche, Mannheim, Germany) was determined as a measure of apoptosis.

p-JNK1 = experiment: Cytosolic p-JNK1 levels in HepG2 cells (western blotting); assay type: cell-based, human
Method: Immunoblotting was performed according to a standard protocol as set out in Sun Q., et al. Biol Med (Maywood). 2012; 237: 178-185. The following primary antibodies to human proteins were used: mouse a-phosphorylated c-Jun N-terminal kinase 1 (p-JNK1) (88.20; Santa Cruz Biotechnology Inc., Heidelberg, Germany) at 1:500; mouse a-CD36 (1.BB.344; Santa Cruz Biotechnology Inc.) at 1:200; rabbit a-iPLA2ß (558-588; Abcam) at 1:500; mouse a-FABPPM (331-430; Abnova, Heidelberg, Germany) at 1:1,000; mouse a-FATP4 (1F4-1B10; Abnova) at 1:500; mouse a-caveolin-1 (C20B; Santa Cruz Biotechnology Inc.) at 1:500; mouse a-flotilin1 (F-3; Santa Cruz Biotechnology Inc.) at 1:500; and mouse a-ß-actin (AC-15; Sigma) at 1:100,000. Anti-mouse or -rabbit HRP (96910 and 107487, respectively; Dianova, Hamburg, Germany) were used at 1:10,000 dilution as secondary antibodies. To estimate the protein concentration a semi-quantitative densitometry was performed as described in Sun Q et al. (loc cit.).

[1] = system: retrogradely perfused mouse livers; experiment: Single pass [3H]oleate extraction rates in retrogradely perfused mouse livers; assay type: in vivo, C57BL/6 mice; conditions: mice pretreated i.p. 23 mg/kg, 1 h
Method: Twelve-week-old female C57BL/6 mice were injected intraperitoneally with 1 ml UDCA-LPE [ChemCon, Freiburg, Germany] (Chamulitrat W. et al. Hepatology. 2009; 50: 143-154) at 23 mg/kg or phosphate-buffered saline (PBS) as a control with 5% Tween 80. […] Retrograde perfusion of oxygenized 100 µM albumin (A4503, Sigma, Munich, Germany) in PBS was performed at 37°C and a flow rate of 4 ml/min, with the perfusate collected from the opened portal vein (Hoffmann MJ et al. Hepatology. 2012; 55: 1369-1378). After equilibration for 5 min, a 1 ml bolus of 200 µM [3H]oleate (Perkin Elmer, Rodgau, Germany) along with 100 µM [methyl-14 C]albumin (Biotrend, Cologne, Germany) or 100 µM [14C]sucrose (Perkin Elmer) was introduced through the stopcock and the perfusion was allowed to continue for 5 min. Outflow samples were collected every 15 s and single pass extraction rates were determined as previously described (Hoffmann MJ et al. Toxicol. Sciences. 1999; 49: 40-47).

Substance: ursodeoxycholatelysophosphatidylethanolamide [UDCA-LPE]
- apical fatty acid influx (CaCo2 cells; CaCo2 cells cultured 21 days (polarized), pretreatment at the apical site): significantly inhibited
- inhibition of fatty acid influx (CaCo2 cells; UDCA-LPE 100 µM, 1 h, scrambled siRNA control conditions): > 50%
- fatty acid influx kinetics (CaCo2 cells; preincubation of CaCo2 cells): non-competitive inhibition
- fatty acid influx (wild-type hepatocytes): inhibited
- fatty acid influx (iPLA2ß-/- hepatocytes): not
- fatty acid-induced inflammation (LDH release) (HepG2 cells): prevented or reversed
- steatosis (HepG2 cells): prevented or reversed
- pretreatment time achieving the threshold LPC concentration at which p-JNK1 began to decrease (p-JNK1; > 50 µM UDCA-LPE): > 30 min
- pretreatment concentration achieving the threshold LPC concentration at which p-JNK1 began to decrease (p-JNK1; for > 30 min): > 50 µM
- cumulative proportion of the [3H]oleate extracted ([1]; 200 µM [3H]oleate:albumin (2:1)): 0.30 ± 0.03
- inhibition of fatty acid influx ([1]; vs controls): 34%
